Reference: the NIST ThermoML archive (doi:10.1016/j.jct.2013.05.036)

Conditions: 101.33 kPa, Liquid, Levitation methods

[Re] [rhenium]
Conditions	viscosity [mPa·s]
3034 K	14.9
3050 K	14.6
3100 K	13.9
3150 K	13.2
3200 K	12.5
3250 K	12
3300 K	11.4
3350 K	10.9
3400 K	10.4
3450 K	10
3459 K	9.9
3500 K	9.6
3550 K	9.2
3600 K	8.8
3650 K	8.5
3675 K	8.4

[Ta] [tantalum]
Conditions	viscosity [mPa·s]
2880 K	13.4
2900 K	13.1
2950 K	12.4
3000 K	11.7
3050 K	11.1
3100 K	10.6
3150 K	10.1
3200 K	9.6
3250 K	9.2
3293 K	8.9
3300 K	8.8
3350 K	8.4
3400 K	8.1
3450 K	7.8
3500 K	7.5
3514 K	7.4

[W] [tungsten]
Conditions	viscosity [mPa·s]
3155 K	16.7
3200 K	15.7
3250 K	14.6
3300 K	13.7
3350 K	12.8
3400 K	12
3450 K	11.3
3500 K	10.6
3550 K	10
3600 K	9.4
3634 K	9.1
3695 K	8.5

[Mo] [molybdenum]
Conditions	viscosity [mPa·s]
2573 K	6.7
2600 K	6.6
2650 K	6.2
2700 K	5.9
2750 K	5.7
2800 K	5.4
2850 K	5.2
2896 K	5
2900 K	5
2950 K	4.8
3000 K	4.6
3050 K	4.5
3100 K	4.3
3150 K	4.2
3213 K	4

[Os] [osmium]
Conditions	viscosity [mPa·s]
3265 K	7.4
3290 K	7.2
3306 K	7
3315 K	7
3340 K	6.7
3365 K	6.5
3390 K	6.3
3415 K	6.1
3440 K	6
3465 K	5.8
3490 K	5.6
3515 K	5.5
3542 K	5.3
